Reference: ChEMBL document CHEMBL5291721, “A preclinical secondary pharmacology resource illuminates target-adverse drug reaction associations of marketed drugs” (Nat Commun, 2023)

What was measured:
Vasopressin V1a receptor = Vasopressin V1a receptor (Homo sapiens, UniProt P37288)
Bile salt export pump = Bile salt export pump (Homo sapiens, UniProt O95342); assay type: functional
[1] = molecular target: T1, Cholecystokinin receptor type A (Homo sapiens, UniProt P32238)
T1 sequence (P32238 whole entry): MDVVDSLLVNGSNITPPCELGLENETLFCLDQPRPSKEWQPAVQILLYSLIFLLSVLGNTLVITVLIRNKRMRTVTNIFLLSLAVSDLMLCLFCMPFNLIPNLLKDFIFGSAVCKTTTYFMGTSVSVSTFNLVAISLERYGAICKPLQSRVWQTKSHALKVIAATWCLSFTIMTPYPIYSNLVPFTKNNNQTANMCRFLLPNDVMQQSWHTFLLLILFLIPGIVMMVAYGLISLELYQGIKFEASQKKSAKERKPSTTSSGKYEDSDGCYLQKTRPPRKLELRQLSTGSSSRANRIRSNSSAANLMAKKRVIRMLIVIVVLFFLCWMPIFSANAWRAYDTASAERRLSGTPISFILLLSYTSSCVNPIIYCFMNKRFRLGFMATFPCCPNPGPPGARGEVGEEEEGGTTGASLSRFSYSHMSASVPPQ

[2] = molecular target: Sodium-dependent noradrenaline transporter (Homo sapiens, UniProt P23975)
[3] = molecular target: 5-hydroxytryptamine receptor 2B (Homo sapiens, UniProt P41595); assay type: functional, cell-based
Chain of 5-hydroxytryptamine receptor 2B (P41595 whole entry): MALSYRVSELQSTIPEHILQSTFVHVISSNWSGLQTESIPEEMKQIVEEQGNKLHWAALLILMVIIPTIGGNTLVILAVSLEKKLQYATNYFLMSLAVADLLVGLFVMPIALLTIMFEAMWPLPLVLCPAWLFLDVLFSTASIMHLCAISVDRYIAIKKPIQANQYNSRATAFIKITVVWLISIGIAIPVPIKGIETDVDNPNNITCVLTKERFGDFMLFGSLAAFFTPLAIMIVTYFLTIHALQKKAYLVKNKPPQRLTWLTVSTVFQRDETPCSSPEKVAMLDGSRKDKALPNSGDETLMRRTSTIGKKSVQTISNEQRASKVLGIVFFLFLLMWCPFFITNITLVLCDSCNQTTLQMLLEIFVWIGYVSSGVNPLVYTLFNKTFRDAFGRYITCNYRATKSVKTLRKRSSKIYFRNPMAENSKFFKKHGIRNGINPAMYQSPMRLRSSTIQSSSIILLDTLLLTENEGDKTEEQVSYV

[4] = molecular target: T2, 5-hydroxytryptamine receptor 2C (Homo sapiens, UniProt P28335)
T2 sequence (P28335 whole entry): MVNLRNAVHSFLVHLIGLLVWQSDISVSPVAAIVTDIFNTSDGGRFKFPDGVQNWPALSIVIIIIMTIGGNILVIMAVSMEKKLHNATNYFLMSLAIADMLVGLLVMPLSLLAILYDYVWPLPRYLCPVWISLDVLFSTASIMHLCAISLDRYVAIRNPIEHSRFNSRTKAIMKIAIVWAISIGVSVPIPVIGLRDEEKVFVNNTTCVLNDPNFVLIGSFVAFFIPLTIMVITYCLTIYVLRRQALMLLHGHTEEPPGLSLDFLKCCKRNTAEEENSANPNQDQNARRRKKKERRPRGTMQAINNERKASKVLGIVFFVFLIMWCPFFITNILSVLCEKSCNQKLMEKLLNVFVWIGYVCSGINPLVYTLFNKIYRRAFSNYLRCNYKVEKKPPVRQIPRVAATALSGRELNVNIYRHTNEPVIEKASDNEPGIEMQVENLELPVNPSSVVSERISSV

[5] = molecular target: Growth hormone secretagogue receptor type 1 (Homo sapiens, UniProt Q92847)
Chain of Growth hormone secretagogue receptor type 1 (Q92847 whole entry): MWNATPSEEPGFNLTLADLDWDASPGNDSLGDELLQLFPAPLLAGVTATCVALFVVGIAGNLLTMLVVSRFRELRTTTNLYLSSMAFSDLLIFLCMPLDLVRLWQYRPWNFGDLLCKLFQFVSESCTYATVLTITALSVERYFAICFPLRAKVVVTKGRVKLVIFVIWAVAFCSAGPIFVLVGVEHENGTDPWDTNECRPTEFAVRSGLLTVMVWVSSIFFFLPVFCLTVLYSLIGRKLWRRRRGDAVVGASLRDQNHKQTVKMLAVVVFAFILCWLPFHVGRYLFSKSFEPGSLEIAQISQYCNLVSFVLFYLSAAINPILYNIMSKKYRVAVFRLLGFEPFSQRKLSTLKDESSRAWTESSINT

[6] = molecular target: Beta-1 adrenergic receptor (Homo sapiens, UniProt P08588); assay type: functional
Chain of Beta-1 adrenergic receptor (P08588 whole entry): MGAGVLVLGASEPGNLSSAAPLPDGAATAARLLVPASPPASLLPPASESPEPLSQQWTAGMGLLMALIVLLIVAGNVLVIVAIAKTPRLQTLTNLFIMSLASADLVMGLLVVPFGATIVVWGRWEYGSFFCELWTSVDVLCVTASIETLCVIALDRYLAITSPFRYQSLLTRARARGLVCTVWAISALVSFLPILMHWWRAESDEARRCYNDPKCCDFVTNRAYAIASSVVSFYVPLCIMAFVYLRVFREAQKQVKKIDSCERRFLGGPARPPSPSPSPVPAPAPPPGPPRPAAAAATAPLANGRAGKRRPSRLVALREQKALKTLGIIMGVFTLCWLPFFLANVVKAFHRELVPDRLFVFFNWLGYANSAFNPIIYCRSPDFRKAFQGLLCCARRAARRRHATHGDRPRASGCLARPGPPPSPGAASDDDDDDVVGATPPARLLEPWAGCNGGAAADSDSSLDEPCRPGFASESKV

[7] = molecular target: Delta-type opioid receptor (Homo sapiens, UniProt P41143)
Chain of Delta-type opioid receptor (P41143 whole entry): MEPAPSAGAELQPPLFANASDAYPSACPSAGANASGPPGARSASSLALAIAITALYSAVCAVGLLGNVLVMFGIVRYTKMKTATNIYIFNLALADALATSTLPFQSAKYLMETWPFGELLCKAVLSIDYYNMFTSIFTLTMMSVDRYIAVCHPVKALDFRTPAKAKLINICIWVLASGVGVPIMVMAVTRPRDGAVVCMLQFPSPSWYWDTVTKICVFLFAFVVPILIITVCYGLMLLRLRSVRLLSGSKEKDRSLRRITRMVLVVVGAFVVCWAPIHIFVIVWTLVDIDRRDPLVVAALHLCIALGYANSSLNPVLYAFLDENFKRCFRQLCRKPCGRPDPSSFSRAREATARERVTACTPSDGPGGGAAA

[8] = molecular target: T3, Alpha-2C adrenergic receptor (Homo sapiens, UniProt P18825); assay type: functional
T3 sequence (P18825 whole entry): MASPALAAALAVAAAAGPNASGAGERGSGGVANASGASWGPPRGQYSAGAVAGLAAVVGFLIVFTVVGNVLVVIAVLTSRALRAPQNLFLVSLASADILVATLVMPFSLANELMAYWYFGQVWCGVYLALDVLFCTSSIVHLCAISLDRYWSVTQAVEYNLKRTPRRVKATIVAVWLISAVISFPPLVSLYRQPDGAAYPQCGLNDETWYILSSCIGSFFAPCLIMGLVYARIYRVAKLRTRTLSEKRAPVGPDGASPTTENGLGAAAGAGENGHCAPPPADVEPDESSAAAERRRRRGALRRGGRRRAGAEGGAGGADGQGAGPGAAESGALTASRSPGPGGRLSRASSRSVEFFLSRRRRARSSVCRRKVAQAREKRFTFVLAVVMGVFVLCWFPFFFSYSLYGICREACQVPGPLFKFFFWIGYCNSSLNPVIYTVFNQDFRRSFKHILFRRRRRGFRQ

[9] = molecular target: cGMP-inhibited 3',5'-cyclic phosphodiesterase 3A (Homo sapiens, UniProt Q14432); assay type: functional
Chain of cGMP-inhibited 3',5'-cyclic phosphodiesterase 3A (Q14432 whole entry): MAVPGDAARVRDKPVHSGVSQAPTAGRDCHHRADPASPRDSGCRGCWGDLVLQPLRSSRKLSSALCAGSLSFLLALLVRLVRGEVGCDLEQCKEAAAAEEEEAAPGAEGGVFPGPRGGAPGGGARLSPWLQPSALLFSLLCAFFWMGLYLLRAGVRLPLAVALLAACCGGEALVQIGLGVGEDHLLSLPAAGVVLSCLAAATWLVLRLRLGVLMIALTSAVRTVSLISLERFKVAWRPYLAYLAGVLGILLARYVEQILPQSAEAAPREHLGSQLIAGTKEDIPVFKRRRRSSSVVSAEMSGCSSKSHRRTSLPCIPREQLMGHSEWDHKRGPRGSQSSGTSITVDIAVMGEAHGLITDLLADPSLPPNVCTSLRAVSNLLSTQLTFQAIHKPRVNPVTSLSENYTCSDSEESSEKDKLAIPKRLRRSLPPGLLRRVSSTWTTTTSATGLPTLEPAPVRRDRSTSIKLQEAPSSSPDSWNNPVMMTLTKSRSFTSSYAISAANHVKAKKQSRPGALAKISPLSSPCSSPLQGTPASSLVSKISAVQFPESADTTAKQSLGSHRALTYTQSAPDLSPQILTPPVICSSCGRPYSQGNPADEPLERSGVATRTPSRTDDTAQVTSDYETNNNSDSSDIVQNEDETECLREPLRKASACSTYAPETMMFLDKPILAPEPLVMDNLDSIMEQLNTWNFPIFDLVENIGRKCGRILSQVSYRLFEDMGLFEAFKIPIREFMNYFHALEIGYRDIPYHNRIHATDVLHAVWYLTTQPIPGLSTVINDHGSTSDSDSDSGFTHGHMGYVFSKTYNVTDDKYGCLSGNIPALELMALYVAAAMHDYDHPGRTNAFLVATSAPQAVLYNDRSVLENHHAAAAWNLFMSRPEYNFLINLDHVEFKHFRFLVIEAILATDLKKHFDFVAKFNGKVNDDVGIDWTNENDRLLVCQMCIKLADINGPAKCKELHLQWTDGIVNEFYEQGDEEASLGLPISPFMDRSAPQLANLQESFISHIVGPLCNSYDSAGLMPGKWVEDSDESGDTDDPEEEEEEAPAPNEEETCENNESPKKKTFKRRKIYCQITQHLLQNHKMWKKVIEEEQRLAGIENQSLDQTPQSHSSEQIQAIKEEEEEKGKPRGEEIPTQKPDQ

[10] = molecular target: Gamma-aminobutyric acid receptor subunit alpha-1 (Rattus norvegicus, UniProt P62813); assay type: functional
Chain of Gamma-aminobutyric acid receptor subunit alpha-1 (P62813 whole entry): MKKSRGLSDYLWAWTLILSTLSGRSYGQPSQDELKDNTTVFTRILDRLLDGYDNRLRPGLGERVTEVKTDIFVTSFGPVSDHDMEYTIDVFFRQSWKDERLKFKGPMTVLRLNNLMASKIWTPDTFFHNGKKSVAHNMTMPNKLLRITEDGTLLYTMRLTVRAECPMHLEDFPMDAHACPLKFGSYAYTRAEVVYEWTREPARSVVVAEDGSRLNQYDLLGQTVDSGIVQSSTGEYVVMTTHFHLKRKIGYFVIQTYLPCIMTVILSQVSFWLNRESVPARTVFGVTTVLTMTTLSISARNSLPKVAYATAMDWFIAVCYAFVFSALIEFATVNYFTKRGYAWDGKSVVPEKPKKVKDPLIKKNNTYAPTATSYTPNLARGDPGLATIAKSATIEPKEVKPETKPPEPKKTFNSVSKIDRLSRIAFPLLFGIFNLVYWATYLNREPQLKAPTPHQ

D(3) dopamine receptor = D(3) dopamine receptor (Homo sapiens, UniProt P35462)
Chain of D(3) dopamine receptor (P35462 whole entry): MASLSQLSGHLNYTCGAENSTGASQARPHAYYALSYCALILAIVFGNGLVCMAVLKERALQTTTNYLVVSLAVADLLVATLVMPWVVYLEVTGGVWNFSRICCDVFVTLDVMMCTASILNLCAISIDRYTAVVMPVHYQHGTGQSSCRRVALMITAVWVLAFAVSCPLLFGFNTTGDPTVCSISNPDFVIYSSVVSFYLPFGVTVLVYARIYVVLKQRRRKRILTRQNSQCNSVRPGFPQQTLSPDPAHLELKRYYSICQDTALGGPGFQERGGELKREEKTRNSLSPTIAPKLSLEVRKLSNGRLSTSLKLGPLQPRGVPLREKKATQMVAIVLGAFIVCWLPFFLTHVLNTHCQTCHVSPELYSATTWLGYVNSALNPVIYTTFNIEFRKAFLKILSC

[11] = molecular target: T4, Muscarinic acetylcholine receptor M2 (Homo sapiens, UniProt P08172); assay type: functional, cell-based
T4 sequence (P08172 whole entry): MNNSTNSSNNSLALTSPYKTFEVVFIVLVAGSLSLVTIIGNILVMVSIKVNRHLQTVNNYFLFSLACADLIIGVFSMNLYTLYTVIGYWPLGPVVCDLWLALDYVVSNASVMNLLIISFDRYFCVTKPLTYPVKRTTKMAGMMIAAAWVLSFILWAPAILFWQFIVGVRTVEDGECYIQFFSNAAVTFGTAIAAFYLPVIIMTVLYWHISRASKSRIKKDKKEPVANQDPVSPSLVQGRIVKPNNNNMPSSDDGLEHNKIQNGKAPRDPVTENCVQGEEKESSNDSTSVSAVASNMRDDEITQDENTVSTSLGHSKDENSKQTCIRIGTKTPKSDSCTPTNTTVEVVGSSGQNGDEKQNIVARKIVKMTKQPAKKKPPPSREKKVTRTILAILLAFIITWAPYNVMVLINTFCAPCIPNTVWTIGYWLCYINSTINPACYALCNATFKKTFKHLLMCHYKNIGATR

[12] = molecular target: T4, Muscarinic acetylcholine receptor M2; assay type: functional, cell-based; remark: listed apart in the source
Also: assay procedure not described here.

Chain of Bile salt export pump (O95342 whole entry): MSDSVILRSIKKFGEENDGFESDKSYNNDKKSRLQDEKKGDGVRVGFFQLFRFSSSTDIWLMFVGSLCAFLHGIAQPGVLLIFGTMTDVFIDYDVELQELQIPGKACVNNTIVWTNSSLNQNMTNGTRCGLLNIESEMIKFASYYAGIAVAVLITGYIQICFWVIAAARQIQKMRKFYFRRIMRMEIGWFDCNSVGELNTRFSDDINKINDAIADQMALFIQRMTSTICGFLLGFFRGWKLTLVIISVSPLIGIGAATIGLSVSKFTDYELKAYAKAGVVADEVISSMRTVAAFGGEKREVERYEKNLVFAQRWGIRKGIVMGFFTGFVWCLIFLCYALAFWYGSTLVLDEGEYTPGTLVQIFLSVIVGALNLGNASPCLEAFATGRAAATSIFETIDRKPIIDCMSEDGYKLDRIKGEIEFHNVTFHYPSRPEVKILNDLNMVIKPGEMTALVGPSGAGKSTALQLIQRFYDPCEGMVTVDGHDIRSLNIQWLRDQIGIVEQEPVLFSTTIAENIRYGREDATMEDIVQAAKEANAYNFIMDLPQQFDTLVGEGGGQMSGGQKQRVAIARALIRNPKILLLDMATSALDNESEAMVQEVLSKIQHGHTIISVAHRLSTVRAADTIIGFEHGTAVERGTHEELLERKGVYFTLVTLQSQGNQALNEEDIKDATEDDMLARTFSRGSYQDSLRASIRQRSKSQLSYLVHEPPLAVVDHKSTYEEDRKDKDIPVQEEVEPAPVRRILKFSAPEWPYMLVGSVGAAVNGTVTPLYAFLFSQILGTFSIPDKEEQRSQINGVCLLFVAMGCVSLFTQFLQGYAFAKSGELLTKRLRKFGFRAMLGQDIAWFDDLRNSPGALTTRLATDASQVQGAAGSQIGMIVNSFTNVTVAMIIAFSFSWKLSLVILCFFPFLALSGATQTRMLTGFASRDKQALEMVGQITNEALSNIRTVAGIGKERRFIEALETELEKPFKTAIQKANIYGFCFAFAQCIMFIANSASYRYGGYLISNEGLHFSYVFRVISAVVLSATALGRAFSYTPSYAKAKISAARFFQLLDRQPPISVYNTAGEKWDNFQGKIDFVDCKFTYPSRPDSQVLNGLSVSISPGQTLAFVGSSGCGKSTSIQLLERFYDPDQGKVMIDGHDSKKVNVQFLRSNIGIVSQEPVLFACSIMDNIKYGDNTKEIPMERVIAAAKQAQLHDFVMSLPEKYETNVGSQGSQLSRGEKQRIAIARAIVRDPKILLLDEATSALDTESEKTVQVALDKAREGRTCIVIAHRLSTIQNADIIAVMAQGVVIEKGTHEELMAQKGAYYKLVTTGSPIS

| Structure (SMILES) | AC50 (Vasopressin V1a receptor) | AC50 (Bile salt export pump) | AC50 [1] | AC50 [2] | AC50 [3] | AC50 [4] | AC50 [5] | AC50 [6] | AC50 [7] | AC50 [8] | AC50 [9] | AC50 [10] | AC50 (D(3) dopamine receptor) | AC50 [11] | AC50 [12] |
| --- | --- | --- | --- | --- | --- | --- | --- | --- | --- | --- | --- | --- | --- | --- | --- |
| Cc1c(C(=O)NN2CCCCC2)nn(-c2ccc(Cl)cc2Cl)c1-c1ccc(Cl)cc1 [RIMONABANT] | 30 µM | 11.6 µM | 17 µM | 22 µM | > 30 µM | > 30 µM | 25 µM | > 30 µM | > 30 µM | 13 µM | 8.4 µM | > 30 µM | 15 µM | – | – |
| C[N+](C)(C)CCO [CHOLINE] | – | > 300 µM | – | – | – | – | – | – | – | – | – | – | – | – | – |
| COC(c1ccccc1)(c1ccccc1)[C@H](Oc1nc(C)cc(C)n1)C(=O)O [AMBRISENTAN] | – | 200 µM | – | – | – | – | – | – | – | – | – | – | – | – | – |
| OCCN1C[C@H](O)[C@@H](O)[C@H](O)[C@H]1CO [MIGLITOL] | – | > 300 µM | – | – | – | – | – | – | – | – | – | – | – | – | – |
| CN(C)/N=N/c1[nH]cnc1C(N)=O [DACARBAZINE] | – | > 300 µM | > 10 µM | > 10 µM | > 10 µM | > 30 µM | > 10 µM | > 10 µM | > 30 µM | > 10 µM | > 30 µM | > 10 µM | > 30 µM | > 10 µM | > 10 µM |
| C1CCC(C(CC2CCCCN2)C2CCCCC2)CC1 (stereo not drawn) [PERHEXILINE] | > 30 µM | 72 µM | > 30 µM | 7.24 µM | 12 µM | > 30 µM | 6.2 µM | > 30 µM | 23.5 µM | 16.5 µM | > 30 µM | > 30 µM | > 30 µM | – | 4.9 µM |
| CCCCCCOc1nsnc1C1=CCCN(C)C1 [XANOMELINE] | – | > 300 µM | – | – | – | – | – | – | – | – | – | – | – | – | – |
| CS(=O)(=O)c1ccc(C2=C(c3ccccc3)C(=O)OC2)cc1 [ROFECOXIB] | > 10 µM | – | > 30 µM | > 10 µM | > 30 µM | > 30 µM | > 30 µM | > 10 µM | > 10 µM | > 10 µM | > 30 µM | 4.7 µM | > 10 µM | > 30 µM | > 30 µM |
| C[N+]1(C)CCC(OC(=O)C(O)(c2ccccc2)C2CCCC2)C1 (stereo not drawn) [GLYCOPYRRONIUM BROMIDE] | > 30 µM | > 300 µM | > 30 µM | – | – | – | > 30 µM | – | – | – | > 30 µM | – | – | – | – |
| COc1cc(NC(C)CCCN)c2ncccc2c1 (stereo not drawn) [PRIMAQUINE] | – | 61 µM | > 30 µM | – | – | – | > 30 µM | – | – | – | 2.9 µM | – | – | – | – |
| CN(C)CC(c1ccc(O)cc1)C1(O)CCCCC1 (stereo not drawn) [DESVENLAFAXINE] | – | > 300 µM | – | – | – | – | – | – | – | – | – | – | – | – | – |
| CCc1oc2ccccc2c1C(=O)c1cc(I)c(O)c(I)c1 [BENZIODARONE] | – | 6.3 µM | – | – | – | – | – | – | – | – | – | – | – | – | – |
| CC(C)(S)[C@@H](N)C(=O)O [PENICILLAMINE] | – | > 300 µM | – | – | – | – | – | – | – | – | – | – | – | – | – |
| CCCSc1ccc2nc(NC(=O)OC)[nH]c2c1 [ALBENDAZOLE] | – | > 300 µM | > 10 µM | > 30 µM | > 10 µM | > 30 µM | > 10 µM | > 10 µM | > 30 µM | > 10 µM | > 30 µM | > 10 µM | > 30 µM | > 10 µM | > 10 µM |
| CC(C)Nc1ncccn1 [ISAXONINE] | – | > 300 µM | – | – | – | – | – | – | – | – | – | – | – | – | – |
| c1cnc(N2CCN(Cc3ccc4c(c3)OCO4)CC2)nc1 [PIRIBEDIL] | > 30 µM | 130 µM | > 30 µM | 18 µM | > 30 µM | > 30 µM | 30 µM | – | > 30 µM | 0.96 µM | > 30 µM | > 30 µM | 7.1 µM | > 30 µM | > 30 µM |
| CC1=C(C(=O)O)N2C(=O)[C@@H](NC(=O)[C@H](N)c3ccccc3)[C@H]2SC1 [CEPHALEXIN ANHYDROUS] | > 10 µM | > 300 µM | > 30 µM | > 10 µM | – | > 30 µM | > 30 µM | > 10 µM | > 30 µM | > 10 µM | > 30 µM | > 10 µM | > 10 µM | – | – |
| C=CCc1ccccc1OCC(O)CNC(C)C (stereo not drawn) [ALPRENOLOL] | > 30 µM | – | > 30 µM | 30 µM | > 30 µM | > 30 µM | > 30 µM | – | > 30 µM | 14.4 µM | > 30 µM | > 30 µM | > 30 µM | > 30 µM | > 30 µM |
| Clc1ccc(C(c2ccccc2Cl)C(Cl)Cl)cc1 (stereo not drawn) [MITOTANE] | – | 41 µM | > 10 µM | > 10 µM | > 10 µM | > 30 µM | > 10 µM | > 10 µM | > 30 µM | > 10 µM | > 30 µM | > 10 µM | > 30 µM | > 10 µM | > 10 µM |
| O=C(Cc1ccc(-c2ccccc2)cc1)Nc1ccccn1 [DIFENPIRAMIDE] | – | – | – | – | > 30 µM | > 30 µM | – | – | > 30 µM | > 30 µM | > 30 µM | > 30 µM | > 30 µM | > 30 µM | > 30 µM |
| CCOC(=O)[C@H](CCc1ccccc1)N[C@@H](C)C(=O)N1[C@H](C(=O)O)C[C@H]2CCCC[C@@H]21 [TRANDOLAPRIL] | – | 220 µM | – | – | – | – | – | – | – | – | – | – | – | – | – |
| CCC1=C(C)CN(C(=O)NCCc2ccc(S(=O)(=O)NC(=O)N[C@H]3CC[C@H](C)CC3)cc2)C1=O [GLIMEPIRIDE] | – | 14 µM | – | – | – | – | – | – | – | – | – | – | – | – | – |
| O=P1(NCCCl)OCCCN1CCCl (stereo not drawn) [IFOSFAMIDE] | – | > 300 µM | > 30 µM | > 30 µM | > 30 µM | > 30 µM | > 30 µM | > 30 µM | > 30 µM | > 30 µM | 12 µM | > 30 µM | > 30 µM | > 30 µM | > 30 µM |
| CC(C)(C)NC[C@H](O)COc1ccccc1C1CCCC1 [PENBUTOLOL] | – | > 300 µM | – | – | – | – | – | – | – | – | – | – | – | – | – |
| O=C(CCNNC(=O)c1ccncc1)NCc1ccccc1 [NIALAMIDE] | – | > 300 µM | – | – | – | – | – | – | – | – | – | – | – | – | – |
| O=C(O)c1cc(O)ccc1O [GENTISIC ACID] | – | > 300 µM | – | – | – | – | – | – | – | – | – | – | – | – | – |
| C=C[C@H]1C[N@@]2CC[C@H]1C[C@H]2[C@H](O)c1ccnc2ccc(OC)cc12 [QUININE] | – | > 300 µM | – | – | – | – | – | – | – | – | – | – | – | – | – |
